For five compounds, IC50 results are on record in patent publication US20060079566A1, “PDK-1/Akt signaling inhibitors” (priority 2003, published 2006).

One may read the IC50 as the concentration needed to halve the response being measured.

In one experiment the target is T1, recombinant PDK-1 (Homo sapiens, UniProt O15530).
T1 construct: purchased Upstate (Lake Placid, N.Y.)
T1 sequence (O15530 1-556): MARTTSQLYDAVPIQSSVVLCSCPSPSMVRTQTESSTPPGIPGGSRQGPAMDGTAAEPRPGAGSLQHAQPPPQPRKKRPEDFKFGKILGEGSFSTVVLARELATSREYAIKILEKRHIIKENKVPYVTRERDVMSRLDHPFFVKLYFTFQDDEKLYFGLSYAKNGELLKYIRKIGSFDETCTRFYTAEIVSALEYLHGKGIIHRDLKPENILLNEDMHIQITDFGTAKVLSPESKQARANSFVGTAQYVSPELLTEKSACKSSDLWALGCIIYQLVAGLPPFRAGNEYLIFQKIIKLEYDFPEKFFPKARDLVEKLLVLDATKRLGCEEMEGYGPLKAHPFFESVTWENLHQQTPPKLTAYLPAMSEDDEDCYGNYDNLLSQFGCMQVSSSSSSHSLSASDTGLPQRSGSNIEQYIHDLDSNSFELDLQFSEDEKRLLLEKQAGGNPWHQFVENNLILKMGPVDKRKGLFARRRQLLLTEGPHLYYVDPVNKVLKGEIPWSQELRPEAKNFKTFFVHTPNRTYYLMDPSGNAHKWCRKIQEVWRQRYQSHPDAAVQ
Nature of the experiment: PDK-1 kinase activity (Upstate kit, SGK-coupled, cell-free). Type of experiment: biochemical.

The next experiment has as its system PC-3 cells. Nature of the experiment: Cell viability analysis (MTT) in PC-3 cells. In kind it is cell-based, human. Conditions: Homo sapiens; inducing apoptotic death in PC-3 cells / PC-3 cell viability; read-out: IC50 PC-3. As to the method:
Cell Culture PC-3 (p53−/−) human androgen-nonresponsive prostate cancer cells were purchased from the American […] (Manassas, Va.). Cells were cultured in RPMI 1640 medium (Gibco, Grand Island, N.Y.) supplemented with 10% fetal bovine serum (FBS; Gibco) at 37° C. in a humidified incubator containing 5% CO2.
Cell viability analysis The effect of 4-[5-(4-methylphenyl)-3-(trifluoromethyl)-1H-pyrazol-1-yl]benzenesulfonamide and its derivatives on PC-3 cell viability was assessed by using the MTT {[3-(4,5-dimethylthiazol-2-yl)-2,5-diphenyl-2H-tetrazolium bromide]} assay in six replicates. Cells were grown in 10% FBS-supplemented RPMI 1640 medium in 96-well, flat bottomed plates for 24 h, and were exposed to various concentrations of compounds 1-36 dissolved in DMSO (final concentration ≦0.1%) in 1% serum-containing RPMI 1640 medium for different time intervals. Controls received DMSO vehicle at a concentration equal to that in drug-treated cells. The medium was removed, replaced by 200 μl of 0.5 mg/ml of MTT in 10% FBS-containing RPMI-1640 medium, and cells were incubated in the CO2 incubator at 37° C. for 2 h. Supernatants were removed from the wells, and the reduced MTT dye was solubilized in 200 μL/well DMSO. Absorbance at 570 nm was determined on a plate reader.

Read-outs that look alike come from different tables or passages of the source.

Method for recombinant PDK-1: PDK-1 kinase activity This in vitro assay was performed using a PDK-1 kinase assay kit (Upstate, Lake Placid, N.Y.) according to the vendor's instructions. This cell-free assay is based on the ability of recombinant PDK-1, in the presence of DMSO vehicle or the test agent, to activate its downstream kinase serum- and glucocorticoid-regulated kinase (SGK.) which, in turn, phosphorylates the Akt/SGK-specific peptide substrate RPRAATF with [γ-^32]-ATP. […] The reported values represent the means of two independent determinations.

Take `[N-]=[N+]=NCCCc1ccc(-c2cc(C(F)(F)F)nn2-c2ccc(S(N)(=O)=O)cc2)cc1` [Compound 40, 4-[5-(4-(3-azidopropyl)phenyl)-3-(trifluoromethyl)-1H-pyrazol-1-yl]benzenesulfonamide]: the IC50 at recombinant PDK-1 turned out to be 34 µM; with PC-3 cells it was 18 µM.

As for `NS(=O)(=O)c1ccc(-n2nc(C(F)(F)F)cc2-c2cc3ccccc3c3ccccc23)cc1` [Compound 60, 4-[5-(9-phenanthrenyl)-3-(trifluoromethyl)-1H-1-yl]benzenesulfonamide], the IC50 on recombinant PDK-1 came out at 42 µM; with PC-3 cells, 23 µM.

In the case of `CC(C)(C)c1ccc(-c2ccc(-c3cc(C(F)(F)F)nn3-c3ccc(S(N)(=O)=O)cc3)cc2)cc1` [Compound 55, 4-[5-(4′-tert-buty[1,1′-biphenyl]-4-yl)-3-(trifluoromethyl)-1H-1-yl]benzenesulfonamide], the IC50 on recombinant PDK-1 (inhibiting recombinant PDK-1 kinase activity, read-out: IC50 PDK-1) stood at 32 µM; in the experiment with PC-3 cells, 15 µM.

Consider `[N-]=[N+]=NCCc1ccc(-c2cc(C(F)(F)F)nn2-c2ccc(S(N)(=O)=O)cc2)cc1` [Compound 39, 4-[5-(4-(2-azidoethyl)phenyl)-3-(trifluoromethyl)-1H-pyrazol-1-yl]benzenesulfonamide], for which the IC50 on recombinant PDK-1 was determined as 32 µM; in the experiment with PC-3 cells, 17 µM.

For `NS(=O)(=O)c1ccc(-n2nc(C(F)(F)F)cc2-c2ccc(-c3cc(Cl)cc(Cl)c3)cc2)cc1` [Compound 47, 4-[5-(3′,5′-dichloro[1,1′-biphenyl]-4-yl)-3-(trifluoromethyl)-1H-pyrazol-1-yl]benzenesulfonamide], the IC50 turned out to be 18 µM on recombinant PDK-1 and 10 µM in the experiment with PC-3 cells.
